Data from publication PMC5054527, “Mechanism of high affinity inhibition of the human urate transporter URAT1” (Scientific Reports, 2016).
Substitutions are numbered along the chain they refer to. Like-named read-outs stand apart in the source and are kept apart here.

How the values were obtained:
Experiment in all cases: URAT1 uric acid transport activity assay
Assay type in all cases: cell-based
[1] = molecular target: T1, r-F351C rURAT1 point mutant (Rattus norvegicus, UniProt Q3ZAV1, F351C)
T1 sequence (Q3ZAV1 1-553 F351C): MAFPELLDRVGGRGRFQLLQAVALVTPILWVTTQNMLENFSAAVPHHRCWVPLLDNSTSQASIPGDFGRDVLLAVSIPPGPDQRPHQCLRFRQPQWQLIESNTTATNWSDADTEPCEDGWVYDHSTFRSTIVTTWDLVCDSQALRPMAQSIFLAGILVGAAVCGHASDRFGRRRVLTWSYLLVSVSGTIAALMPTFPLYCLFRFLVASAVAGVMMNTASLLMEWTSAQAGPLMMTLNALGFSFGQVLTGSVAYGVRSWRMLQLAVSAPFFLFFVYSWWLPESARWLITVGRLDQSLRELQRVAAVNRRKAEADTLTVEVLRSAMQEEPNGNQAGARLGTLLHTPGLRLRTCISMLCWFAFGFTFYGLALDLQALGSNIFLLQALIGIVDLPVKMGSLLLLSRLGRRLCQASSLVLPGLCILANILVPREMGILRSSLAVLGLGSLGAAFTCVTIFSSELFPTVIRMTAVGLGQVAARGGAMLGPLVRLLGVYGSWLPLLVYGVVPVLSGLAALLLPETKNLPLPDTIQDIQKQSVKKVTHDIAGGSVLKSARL
Method in brief: (§1)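 Readout: 14C-uric acid uptake (100 μM, 10 min) in cells transiently transfected one day earlier with mutant rURAT1. Serially diluted inhibitors were added 5 min before substrate. Triplicate points, four-parameter logistic fit for IC50.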

[2] = molecular target: T2, r-N35S rURAT1 point mutant (Rattus norvegicus, UniProt Q3ZAV1, N35S); details: for fold increased affinity of r-N35S compared to rURAT1: from IC50 values
T2 construct: expressed in transfected cells; host or cells: HEK-293T
T2 sequence (Q3ZAV1 1-553 N35S): T1 sequence (Q3ZAV1 1-553 F351C) with N35S, C351F
Method in brief: as §1

[3] = molecular target: T3, r-V22M rURAT1 point mutant (Rattus norvegicus, UniProt Q3ZAV1, V22M)
T3 sequence (Q3ZAV1 1-553 V22M): T1 sequence (Q3ZAV1 1-553 F351C) with V22M, C351F
Method in brief: as §1

[4] = r-N35S, MES pH 5.5, 100 μM 14C-uric acid, read-out: IC50 (uric acid transport)

`CCc1oc2ccccc2c1C(=O)c1cc(Br)c(O)c(Br)c1` [benzbromarone] showed an IC50 [1] of 24 ± 3.3 µM, an IC50 [2] of 17 ± 2.1 µM and an IC50 [3] of 20 ± 2.7 µM.
Work on `O=C(O)CSc1nnc(Br)n1-c1ccc(C2CC2)c2ccccc12` [lesinurad, 2-((5-bromo-4-(4-cyclopropylnaphthalen-1-yl)-4H-1,2,4-triazol-3-yl)thio)acetic acid] yielded an IC50 ([1]; r-F351C, MES pH 5.5, 100 μM 14C-uric acid, read-out: IC50 (uric acid transport)) of 82 ± 1.7 µM, an IC50 [2, 4] of 57 ± 6.3 µM and an IC50 ([3]; r-V22M, MES pH 5.5, 100 μM 14C-uric acid, read-out: IC50 (uric acid transport)) of 74 ± 8.9 µM.
With `O=C1C(CC[S+]([O-])c2ccccc2)C(=O)N(c2ccccc2)N1c1ccccc1` (stereo not drawn) [sulfinpyrazone] the IC50 ([1]; r-F351C, HEPES pH 7.3, 100 μM 14C-uric acid, read-out: IC50 (uric acid transport)) was 924 ± 276 µM, the “fold increased affinity of r-N35S compared to rURAT1” value [2] was 3.6 fold and the IC50 ([2]; r-N35S, HEPES pH 7.3, 100 μM 14C-uric acid, read-out: IC50 (uric acid transport)) was 189 ± 32 µM. For the same compound, the IC50 ([3]; r-V22M, HEPES pH 7.3, 100 μM 14C-uric acid, read-out: IC50 (uric acid transport)) was 762 ± 177 µM.
In the case of `O=c1[nH]c(=O)c2[nH]c(=O)[nH]c2[nH]1` [uric acid], the “fold increased affinity of r-N35S compared to rURAT1” value [2] is reported as “no phenotype” and the IC50 [2, 4] is reported as 2660 µM.
